Among the data in patent US8138177B2 (dated 2012) are melting point values, retold here.

Counter-ions that a name gives are not always drawn.

Usually melting point stands for the temperature of the solid-liquid transition. `Cc1cccc2c1n(CCS(C)(=O)=O)c(=O)n2C(=O)N[C@H](C(=O)N(C)C)C(C)(C)C`: the melting point turned out to be 190.7 °C. Turning to `CC[C@H](C)[C@H](NC(=O)n1c(=O)n(CCN2CCCCC2)c2ccccc21)C(N)=O` (as salt: hydrochloride), the melting point stood at 217.1 °C.
